pIC50: −log10 of the molar value.
Molecular target: T1, human carboxylesterase 1 (hCE1) (Homo sapiens, UniProt P23141)
T1 sequence (P23141 18-567): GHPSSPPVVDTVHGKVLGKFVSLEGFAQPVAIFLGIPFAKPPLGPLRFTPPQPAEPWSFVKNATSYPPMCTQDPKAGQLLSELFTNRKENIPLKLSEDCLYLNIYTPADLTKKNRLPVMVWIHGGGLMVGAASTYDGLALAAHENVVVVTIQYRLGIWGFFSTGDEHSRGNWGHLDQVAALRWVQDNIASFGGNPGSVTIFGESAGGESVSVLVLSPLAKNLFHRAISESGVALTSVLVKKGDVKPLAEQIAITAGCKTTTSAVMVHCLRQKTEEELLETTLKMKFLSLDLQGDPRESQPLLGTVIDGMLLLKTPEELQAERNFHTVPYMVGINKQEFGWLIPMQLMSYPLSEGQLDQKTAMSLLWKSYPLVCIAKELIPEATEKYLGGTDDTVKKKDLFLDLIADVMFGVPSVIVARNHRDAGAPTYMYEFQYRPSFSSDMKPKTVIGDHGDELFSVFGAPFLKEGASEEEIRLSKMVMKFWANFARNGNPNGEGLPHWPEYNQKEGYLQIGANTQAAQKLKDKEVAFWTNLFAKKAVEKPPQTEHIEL
Test: hCE1 inhibition, p-nitrophenyl acetate hydrolysis
Assay type: biochemical

| SMILES | pIC50 |
| --- | --- |
| CCCCCCCCOCC(=O)C(F)(F)F [Compound 4, 1,1,1-trifluoro-3-octyloxypropan-2-one] | 7.70 |
| CCCCCCCCCCC(C)=O [Compound 9, 2-dodecanone, reference compound] | < 3.00 |

Source: paper PMC3014912 (Journal of molecular modeling, 2010)
